How the values were obtained:
Carbonic anhydrase 2 = Carbonic anhydrase 2 (Homo sapiens, UniProt P00918); test: DRUGMATRIX: Carbonic Anhydrase II enzyme inhibition (substrate: 4-Nitrophenyl acetate (4-NPA)); type: tissue-based, Erythrocyte; conditions: erythrocyte; Not Active = under 50% inhibition at 10 µM
Cytochrome P450 1A2 = target: T1, Cytochrome P450 1A2 (Homo sapiens, UniProt P05177); conditions: bti-tn-5b1-4; note: in other assays of this panel Not Active means under 50% inhibition at 10 µM
T1 sequence (P05177 whole entry): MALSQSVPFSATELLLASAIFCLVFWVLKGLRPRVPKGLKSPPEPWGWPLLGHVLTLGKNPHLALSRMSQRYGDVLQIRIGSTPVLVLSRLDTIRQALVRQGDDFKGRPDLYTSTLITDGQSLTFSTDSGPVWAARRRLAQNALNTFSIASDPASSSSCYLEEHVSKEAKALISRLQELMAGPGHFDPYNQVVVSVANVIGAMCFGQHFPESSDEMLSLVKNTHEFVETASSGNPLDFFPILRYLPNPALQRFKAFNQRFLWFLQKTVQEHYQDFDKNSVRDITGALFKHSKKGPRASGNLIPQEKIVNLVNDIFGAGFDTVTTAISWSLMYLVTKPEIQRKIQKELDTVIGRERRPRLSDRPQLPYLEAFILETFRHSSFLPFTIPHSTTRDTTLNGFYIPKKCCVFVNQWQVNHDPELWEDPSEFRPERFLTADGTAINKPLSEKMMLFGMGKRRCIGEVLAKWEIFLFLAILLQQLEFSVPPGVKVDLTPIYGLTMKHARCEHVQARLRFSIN

[1] = target: T2, Neuropeptide Y receptor type 1 (Homo sapiens, UniProt P25929); type: cell membranes, Membrane; conditions: sk-n-mc; note: in other assays of this panel Not Active means under 50% inhibition at 10 µM
T2 sequence (P25929 whole entry): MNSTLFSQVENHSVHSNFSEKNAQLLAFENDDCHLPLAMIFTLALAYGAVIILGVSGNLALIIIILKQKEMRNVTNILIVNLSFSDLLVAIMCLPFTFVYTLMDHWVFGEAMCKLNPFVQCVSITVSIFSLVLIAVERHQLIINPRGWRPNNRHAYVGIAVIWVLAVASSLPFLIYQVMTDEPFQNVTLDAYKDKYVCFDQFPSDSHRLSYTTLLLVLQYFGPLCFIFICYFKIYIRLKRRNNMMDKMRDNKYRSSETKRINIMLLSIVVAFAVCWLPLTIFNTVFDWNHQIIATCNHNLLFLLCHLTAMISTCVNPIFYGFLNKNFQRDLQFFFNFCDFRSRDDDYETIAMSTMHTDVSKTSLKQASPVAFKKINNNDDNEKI

[2] = target: T3, Cysteinyl leukotriene receptor 1 (Homo sapiens, UniProt Q9Y271); type: cell membranes, CHO-K1, Membrane; conditions: cho-k1; note: in other assays of this panel Not Active means under 50% inhibition at 10 µM
T3 sequence (Q9Y271 whole entry): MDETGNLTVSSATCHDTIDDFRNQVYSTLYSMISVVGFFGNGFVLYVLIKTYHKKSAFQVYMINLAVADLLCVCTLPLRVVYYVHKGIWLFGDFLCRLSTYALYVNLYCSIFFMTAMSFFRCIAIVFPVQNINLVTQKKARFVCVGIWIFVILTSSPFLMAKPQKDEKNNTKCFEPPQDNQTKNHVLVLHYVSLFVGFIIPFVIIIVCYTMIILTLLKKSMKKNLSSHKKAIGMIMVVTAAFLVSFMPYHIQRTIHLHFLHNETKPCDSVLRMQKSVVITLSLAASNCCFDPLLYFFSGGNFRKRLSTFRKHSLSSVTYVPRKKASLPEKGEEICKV

[3] = target: cGMP-specific 3',5'-cyclic phosphodiesterase (Homo sapiens, UniProt O76074); test: DRUGMATRIX: Phosphodiesterase PDE5 enzyme inhibition (substrate: [3H]cGMP + cGMP); type: tissue-based, Platelet; conditions: platelet; Not Active = under 50% inhibition at 10 µM
[4] = target: Protein kinase C alpha type (Homo sapiens, UniProt P17252); type: cell-based; conditions: sf9;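 note: inhibition of PKCalpha kinase activity measured in an enzyme assay with histone as the phosphorylation substrate; in other assays of this panel Not Active means under 50% inhibition at 10 µM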
Estrogen receptor beta = Estrogen receptor beta (Homo sapiens, UniProt Q92731); conditions: sf9; note: in other assays of this panel Not Active means under 50% inhibition at 10 µM
Estrogen receptor beta, sequence (Q92731 whole entry): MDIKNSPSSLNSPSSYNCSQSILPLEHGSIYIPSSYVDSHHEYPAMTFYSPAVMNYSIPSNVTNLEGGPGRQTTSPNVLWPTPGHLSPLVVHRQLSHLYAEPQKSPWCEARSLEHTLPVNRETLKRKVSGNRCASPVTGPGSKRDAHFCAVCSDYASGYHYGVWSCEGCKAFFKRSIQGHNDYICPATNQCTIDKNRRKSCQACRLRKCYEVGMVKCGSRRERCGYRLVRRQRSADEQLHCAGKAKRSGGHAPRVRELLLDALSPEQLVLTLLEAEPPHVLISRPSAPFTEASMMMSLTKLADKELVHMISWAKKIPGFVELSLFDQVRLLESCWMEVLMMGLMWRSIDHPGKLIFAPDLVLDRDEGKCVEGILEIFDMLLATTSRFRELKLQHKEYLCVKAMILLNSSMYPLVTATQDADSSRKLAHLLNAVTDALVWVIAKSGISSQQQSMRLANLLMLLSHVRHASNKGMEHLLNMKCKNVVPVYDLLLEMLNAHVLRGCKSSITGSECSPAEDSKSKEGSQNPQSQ

[5] = target: T4, Amine oxidase [flavin-containing] A (Homo sapiens, UniProt P21397); test: DRUGMATRIX: Monoamine Oxidase MAO-A enzyme inhibition (substrate: Kynuramine); design: species or system BTI-TN-5B1-4; conditions: bti-tn-5b1-4; Not Active = under 50% inhibition at 10 µM
T4 sequence (P21397 whole entry): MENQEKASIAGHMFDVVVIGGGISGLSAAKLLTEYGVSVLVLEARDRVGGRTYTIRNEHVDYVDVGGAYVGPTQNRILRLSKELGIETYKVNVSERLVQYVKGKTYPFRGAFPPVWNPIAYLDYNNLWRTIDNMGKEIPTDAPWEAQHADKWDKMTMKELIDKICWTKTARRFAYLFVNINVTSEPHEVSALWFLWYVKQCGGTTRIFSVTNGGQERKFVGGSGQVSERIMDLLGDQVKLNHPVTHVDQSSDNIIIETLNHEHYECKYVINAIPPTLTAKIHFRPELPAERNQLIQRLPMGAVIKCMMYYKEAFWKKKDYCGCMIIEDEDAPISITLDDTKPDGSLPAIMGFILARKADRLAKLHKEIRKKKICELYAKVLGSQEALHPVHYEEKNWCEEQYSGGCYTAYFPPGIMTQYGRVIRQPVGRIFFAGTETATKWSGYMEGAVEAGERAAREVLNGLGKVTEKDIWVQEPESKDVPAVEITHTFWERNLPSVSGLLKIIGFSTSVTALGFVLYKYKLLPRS

[6] = DRUGMATRIX: Leukotriene, BLT (LTB4) radioligand binding (ligand: [3H]LTB4); type: cell membranes, Membrane; conditions: u-937; Not Active = under 50% inhibition at 10 µM
Cytochrome P450 2D6 = Cytochrome P450 2D6 (Homo sapiens, UniProt P10635); conditions: bti-tn-5b1-4; note: in other assays of this panel Not Active means under 50% inhibition at 10 µM
Cytochrome P450 2D6, sequence (P10635 whole entry): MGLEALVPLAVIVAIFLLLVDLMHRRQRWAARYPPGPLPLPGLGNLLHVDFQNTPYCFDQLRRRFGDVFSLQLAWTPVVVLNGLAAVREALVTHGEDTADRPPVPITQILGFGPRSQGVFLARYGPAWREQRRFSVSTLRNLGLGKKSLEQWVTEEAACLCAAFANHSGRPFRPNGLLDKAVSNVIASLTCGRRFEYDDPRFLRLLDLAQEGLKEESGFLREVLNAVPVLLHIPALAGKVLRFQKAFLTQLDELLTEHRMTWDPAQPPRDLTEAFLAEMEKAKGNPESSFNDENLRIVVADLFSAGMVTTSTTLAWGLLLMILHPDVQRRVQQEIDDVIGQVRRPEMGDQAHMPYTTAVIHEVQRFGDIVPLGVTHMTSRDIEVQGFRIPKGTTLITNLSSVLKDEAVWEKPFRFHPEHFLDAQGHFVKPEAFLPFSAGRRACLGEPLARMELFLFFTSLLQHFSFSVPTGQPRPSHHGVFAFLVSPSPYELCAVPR

[7] = DRUGMATRIX: Glutamate, AMPA radioligand binding (ligand: [3H] AMPA); type: cell membranes, Rattus norvegicus, Wistar, Cerebral cortex, Membrane; conditions: Not Active = under 50% inhibition at 10 µM
[8] = DRUGMATRIX: Calcium Channel Type L, Benzothiazepine radioligand binding (ligand: [3H] Diltiazem); type: cell membranes, Rattus norvegicus, Wistar, Brain, Membrane; conditions: Not Active = under 50% inhibition at 10 µM

OXALIPLATIN
Not Active: IC50 (Carbonic anhydrase 2) | Ki (Carbonic anhydrase 2) | IC50 (Cytochrome P450 1A2) | Ki (Cytochrome P450 1A2) | IC50 [1] | Ki [1] | IC50 [2] | Ki [2] | IC50 [3] | Ki [3] | IC50 [4] | Ki [4] | IC50 (Estrogen receptor beta) | Ki (Estrogen receptor beta) | IC50 [5] | Ki [5] | IC50 [6] | Ki [6] | IC50 (Cytochrome P450 2D6) | Ki (Cytochrome P450 2D6) | IC50 [7] | Ki [7] | IC50 [8] | Ki [8]

— ChEMBL document CHEMBL1909046, “DrugMatrix in vitro pharmacology data”
